Converted amounts (≈) assume the structure as drawn.
How the values were obtained:
Liver microsome [1] = conditions: rat, microsomes
[2] = Plasma concentration in rat at 5 mg/kg, iv after 6 hrs; assay type: ADME, organism-based; design: dose 5 mg/kg, route intravenous
Cytochrome P450 2C9 = Cytochrome P450 2C9 (Homo sapiens, UniProt P11712); test: Inhibition of CYP2C9 in human liver microsomes after 30 mins in presence of NADPH; assay type: ADME
Hepatitis C virus [3] = test: Antiviral activity against Hepatitis C virus H77c genotype 1a infected in human HuH7 cells after 3 days by FRET assay; assay type: functional, organism-based, Hepacivirus hominis; conditions: genotype 1a H77, Huh-7, 72 h
[4] = Plasma concentration in rat at 10 mg/kg, po after 6 hrs; assay type: ADME, organism-based; design: dose 10 mg/kg, route oral
Hepatitis C virus [5] = test: Antiviral activity against Hepatitis C virus Con1 genotype 1b infected in human HuH7 cells after 3 days by FRET assay; assay type: functional, organism-based, Hepacivirus hominis; conditions: isolate Con1, Huh-7, 72 h
[6] = AUC (0 to 6 hrs) in rat at 10 mg/kg, po; assay type: ADME, organism-based; design: time < 6 hr, dose 10 mg/kg, route oral; conditions: plasma
Hepatitis C virus [7] = test: Antiviral activity against Hepatitis C virus Con1 genotype 1b infected in human HuH7 cells after 3 days by FRET assay in presence of 40% human serum; assay type: functional, organism-based, Hepacivirus hominis; conditions: isolate Con1, Huh-7, 72 h
Cytochrome P450 3A4 = Cytochrome P450 3A4 (Homo sapiens, UniProt P08684); test: Inhibition of CYP3A4 in human liver microsomes using benzyloxyresorufin as substrate after 30 mins in presence of NADPH; assay type: ADME
[8] = target: T1, Nuclear receptor subfamily 1 group I member 2 (Homo sapiens, UniProt O75469); test: Transactivation of human PXR expressed in human HepG2 cells by luciferase reporter gene assay; assay type: cell-based
T1 sequence (O75469 whole entry): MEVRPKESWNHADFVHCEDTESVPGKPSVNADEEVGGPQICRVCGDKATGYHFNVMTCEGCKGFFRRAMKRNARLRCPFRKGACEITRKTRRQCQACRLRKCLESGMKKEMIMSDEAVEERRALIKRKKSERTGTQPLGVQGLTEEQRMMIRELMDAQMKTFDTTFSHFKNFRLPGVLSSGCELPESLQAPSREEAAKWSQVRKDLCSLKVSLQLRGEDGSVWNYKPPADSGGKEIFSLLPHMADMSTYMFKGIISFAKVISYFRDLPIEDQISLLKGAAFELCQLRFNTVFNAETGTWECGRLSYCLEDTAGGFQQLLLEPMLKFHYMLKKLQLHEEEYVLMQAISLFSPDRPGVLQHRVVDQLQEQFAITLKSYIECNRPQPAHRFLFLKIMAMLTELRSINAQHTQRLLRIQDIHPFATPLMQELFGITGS

[9] = target: Sodium channel protein type 5 subunit alpha (Homo sapiens, UniProt Q14524); test: Inhibition of human NaV1.5 expressed in HEK293 cells by fluorescence-based thallium flux assay; assay type: cell-based
[10] = Drug uptake in rat liver at 10 mg/kg, po after 6 hrs; assay type: ADME, organism-based; design: dose 10 mg/kg, route oral; conditions: read-out: Drug uptake
[11] = Solubility of the compound in amorphous form in phosphate buffer at pH 6.5; assay type: physicochemical
[12] = Permeability of the compound at pH 7.4 by PAMPA; assay type: physicochemical; conditions: read-out: permeability
Liver microsome [13] = conditions: human, microsomes
[14] = target: Voltage-gated inwardly rectifying potassium channel KCNH2 (Homo sapiens, UniProt Q12809); test: Inhibition of human ERG by fluorescence-based thallium flux assay
[15] = Cytotoxicity against human HuH7 cells by Alamar blue assay; assay type: cell-based; conditions: Huh-7 cells
Cytochrome P450 2D6 = Cytochrome P450 2D6 (Homo sapiens, UniProt P10635); test: Inhibition of CYP2D6 in human liver microsomes after 30 mins in presence of NADPH; assay type: ADME
Cytochrome P450 2C19 = Cytochrome P450 2C19 (Homo sapiens, UniProt P33261); test: Inhibition of CYP2C19 in human liver microsomes after 30 mins in presence of NADPH; assay type: ADME
[16] = Clearance in rat at 5 mg/kg, iv and 10 mg/kg, po; assay type: ADME, organism-based; conditions: in vivo
[17] = Drug uptake in rat liver at 5 mg/kg, iv after 6 hrs; assay type: ADME, organism-based; design: dose 5 mg/kg, route intravenous; conditions: read-out: Drug uptake
Cytochrome P450 1A2 = target: T2, Cytochrome P450 1A2 (Homo sapiens, UniProt P05177); test: Inhibition of CYP1A2 in human liver microsomes after 30 mins in presence of NADPH; assay type: ADME
T2 sequence (P05177 whole entry): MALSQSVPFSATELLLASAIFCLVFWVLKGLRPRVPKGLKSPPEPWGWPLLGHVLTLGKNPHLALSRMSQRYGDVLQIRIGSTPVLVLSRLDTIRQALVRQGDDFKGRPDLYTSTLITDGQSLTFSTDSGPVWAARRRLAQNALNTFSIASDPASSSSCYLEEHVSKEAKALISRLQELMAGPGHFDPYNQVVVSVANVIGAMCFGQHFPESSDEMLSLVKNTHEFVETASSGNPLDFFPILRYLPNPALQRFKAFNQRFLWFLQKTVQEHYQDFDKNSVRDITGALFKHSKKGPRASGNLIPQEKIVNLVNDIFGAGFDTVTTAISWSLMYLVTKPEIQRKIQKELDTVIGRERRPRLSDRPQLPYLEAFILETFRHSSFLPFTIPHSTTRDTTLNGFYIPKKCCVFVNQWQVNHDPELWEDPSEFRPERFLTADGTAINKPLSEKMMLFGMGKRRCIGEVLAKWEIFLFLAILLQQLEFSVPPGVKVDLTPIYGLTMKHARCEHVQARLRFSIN

HepG2 = test: Cytotoxicity against human HepG2 cells; assay type: cell-based
[18] = AUC (0 to 6 hrs) in rat at 5 mg/kg, iv; assay type: ADME, organism-based; design: time < 6 hr, dose 5 mg/kg, route intravenous; conditions: plasma
Hepatitis C virus [19] = test: Antiviral activity against Hepatitis C virus genotype 1a by cell-based assay; assay type: functional, organism-based, Hepacivirus hominis; conditions: subtype 1a
Hepatitis C virus [20] = test: Antiviral activity against Hepatitis C virus genotype 1b by cell-based assay; assay type: functional, organism-based, Hepacivirus hominis
[21] = Drug uptake in rat liver at 10 mg/kg, po after 4 hrs; assay type: ADME, organism-based; design: dose 10 mg/kg, route oral; conditions: read-out: Drug uptake
[22] = Plasma concentration in rat at 5 mg/kg, iv after 4 hrs; assay type: ADME, organism-based; design: dose 5 mg/kg, route intravenous
[23] = Drug uptake in rat liver at 5 mg/kg, iv after 4 hrs; assay type: ADME, organism-based; design: dose 5 mg/kg, route intravenous; conditions: read-out: Drug uptake
[24] = Ratio of drug level in liver to plasma in rat at 5 mg/kg, iv after 4 hrs; assay type: ADME, organism-based; design: dose 5 mg/kg, route intravenous
[25] = Plasma concentration in rat at 10 mg/kg, po after 4 hrs; assay type: ADME, organism-based; design: dose 10 mg/kg, route oral
[26] = AUC (0 to 4 hrs) in rat at 5 mg/kg, iv; assay type: ADME, organism-based; design: time < 4 hr, dose 5 mg/kg, route intravenous; conditions: plasma
[27] = AUC (0 to 4 hrs) in rat at 10 mg/kg, po; assay type: ADME, organism-based; design: time < 4 hr, dose 10 mg/kg, route oral; conditions: plasma
[28] = Plasma clearance in rat at 5 mg/kg, iv; assay type: ADME, organism-based; design: dose 5 mg/kg, route intravenous

Sequence of Voltage-gated inwardly rectifying potassium channel KCNH2 (Q12809 whole entry): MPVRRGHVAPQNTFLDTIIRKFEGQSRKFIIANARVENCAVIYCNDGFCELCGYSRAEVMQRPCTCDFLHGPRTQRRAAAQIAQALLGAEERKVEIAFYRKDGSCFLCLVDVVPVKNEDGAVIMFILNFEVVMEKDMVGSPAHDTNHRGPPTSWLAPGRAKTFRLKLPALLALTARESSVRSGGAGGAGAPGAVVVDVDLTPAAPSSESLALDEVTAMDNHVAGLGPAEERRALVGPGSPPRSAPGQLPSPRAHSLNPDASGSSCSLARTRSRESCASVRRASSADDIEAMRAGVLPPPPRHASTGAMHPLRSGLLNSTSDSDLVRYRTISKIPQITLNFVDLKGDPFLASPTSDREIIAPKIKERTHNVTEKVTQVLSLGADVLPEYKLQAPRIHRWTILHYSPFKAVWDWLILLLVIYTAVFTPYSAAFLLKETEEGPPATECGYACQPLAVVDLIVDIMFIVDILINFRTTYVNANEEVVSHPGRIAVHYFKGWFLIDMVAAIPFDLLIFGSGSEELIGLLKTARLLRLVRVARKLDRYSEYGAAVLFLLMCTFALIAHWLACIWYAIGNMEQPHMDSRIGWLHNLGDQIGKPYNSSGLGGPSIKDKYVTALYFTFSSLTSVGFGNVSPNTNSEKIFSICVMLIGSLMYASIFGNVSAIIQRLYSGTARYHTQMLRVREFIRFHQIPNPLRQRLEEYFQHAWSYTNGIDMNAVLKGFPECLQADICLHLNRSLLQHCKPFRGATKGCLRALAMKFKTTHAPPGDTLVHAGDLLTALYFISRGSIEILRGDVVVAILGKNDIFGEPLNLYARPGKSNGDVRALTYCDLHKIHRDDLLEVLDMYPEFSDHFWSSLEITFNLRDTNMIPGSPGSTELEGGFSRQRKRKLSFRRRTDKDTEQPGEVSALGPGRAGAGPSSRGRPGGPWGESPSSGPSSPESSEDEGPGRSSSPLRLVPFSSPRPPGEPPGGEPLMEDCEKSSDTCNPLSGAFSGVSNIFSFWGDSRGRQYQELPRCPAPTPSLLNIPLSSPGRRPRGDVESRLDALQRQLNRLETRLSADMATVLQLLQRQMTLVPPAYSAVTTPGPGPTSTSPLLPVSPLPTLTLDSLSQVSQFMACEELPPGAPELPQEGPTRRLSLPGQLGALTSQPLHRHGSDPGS
Sequence of Cytochrome P450 2C9 (P11712 whole entry): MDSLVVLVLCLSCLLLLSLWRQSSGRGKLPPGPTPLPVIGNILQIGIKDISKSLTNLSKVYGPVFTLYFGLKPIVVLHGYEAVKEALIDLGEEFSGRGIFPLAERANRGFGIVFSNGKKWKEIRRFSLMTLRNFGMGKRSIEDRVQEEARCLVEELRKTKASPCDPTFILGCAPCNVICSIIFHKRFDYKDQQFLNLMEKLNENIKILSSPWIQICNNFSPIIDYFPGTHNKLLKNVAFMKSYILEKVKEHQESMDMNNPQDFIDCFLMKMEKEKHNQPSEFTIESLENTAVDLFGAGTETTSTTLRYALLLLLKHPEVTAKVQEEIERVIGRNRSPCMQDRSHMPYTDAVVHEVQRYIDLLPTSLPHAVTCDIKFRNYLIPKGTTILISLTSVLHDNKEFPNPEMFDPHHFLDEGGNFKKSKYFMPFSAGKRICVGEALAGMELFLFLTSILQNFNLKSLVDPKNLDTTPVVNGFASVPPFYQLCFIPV
Sequence of Sodium channel protein type 5 subunit alpha (Q14524 whole entry): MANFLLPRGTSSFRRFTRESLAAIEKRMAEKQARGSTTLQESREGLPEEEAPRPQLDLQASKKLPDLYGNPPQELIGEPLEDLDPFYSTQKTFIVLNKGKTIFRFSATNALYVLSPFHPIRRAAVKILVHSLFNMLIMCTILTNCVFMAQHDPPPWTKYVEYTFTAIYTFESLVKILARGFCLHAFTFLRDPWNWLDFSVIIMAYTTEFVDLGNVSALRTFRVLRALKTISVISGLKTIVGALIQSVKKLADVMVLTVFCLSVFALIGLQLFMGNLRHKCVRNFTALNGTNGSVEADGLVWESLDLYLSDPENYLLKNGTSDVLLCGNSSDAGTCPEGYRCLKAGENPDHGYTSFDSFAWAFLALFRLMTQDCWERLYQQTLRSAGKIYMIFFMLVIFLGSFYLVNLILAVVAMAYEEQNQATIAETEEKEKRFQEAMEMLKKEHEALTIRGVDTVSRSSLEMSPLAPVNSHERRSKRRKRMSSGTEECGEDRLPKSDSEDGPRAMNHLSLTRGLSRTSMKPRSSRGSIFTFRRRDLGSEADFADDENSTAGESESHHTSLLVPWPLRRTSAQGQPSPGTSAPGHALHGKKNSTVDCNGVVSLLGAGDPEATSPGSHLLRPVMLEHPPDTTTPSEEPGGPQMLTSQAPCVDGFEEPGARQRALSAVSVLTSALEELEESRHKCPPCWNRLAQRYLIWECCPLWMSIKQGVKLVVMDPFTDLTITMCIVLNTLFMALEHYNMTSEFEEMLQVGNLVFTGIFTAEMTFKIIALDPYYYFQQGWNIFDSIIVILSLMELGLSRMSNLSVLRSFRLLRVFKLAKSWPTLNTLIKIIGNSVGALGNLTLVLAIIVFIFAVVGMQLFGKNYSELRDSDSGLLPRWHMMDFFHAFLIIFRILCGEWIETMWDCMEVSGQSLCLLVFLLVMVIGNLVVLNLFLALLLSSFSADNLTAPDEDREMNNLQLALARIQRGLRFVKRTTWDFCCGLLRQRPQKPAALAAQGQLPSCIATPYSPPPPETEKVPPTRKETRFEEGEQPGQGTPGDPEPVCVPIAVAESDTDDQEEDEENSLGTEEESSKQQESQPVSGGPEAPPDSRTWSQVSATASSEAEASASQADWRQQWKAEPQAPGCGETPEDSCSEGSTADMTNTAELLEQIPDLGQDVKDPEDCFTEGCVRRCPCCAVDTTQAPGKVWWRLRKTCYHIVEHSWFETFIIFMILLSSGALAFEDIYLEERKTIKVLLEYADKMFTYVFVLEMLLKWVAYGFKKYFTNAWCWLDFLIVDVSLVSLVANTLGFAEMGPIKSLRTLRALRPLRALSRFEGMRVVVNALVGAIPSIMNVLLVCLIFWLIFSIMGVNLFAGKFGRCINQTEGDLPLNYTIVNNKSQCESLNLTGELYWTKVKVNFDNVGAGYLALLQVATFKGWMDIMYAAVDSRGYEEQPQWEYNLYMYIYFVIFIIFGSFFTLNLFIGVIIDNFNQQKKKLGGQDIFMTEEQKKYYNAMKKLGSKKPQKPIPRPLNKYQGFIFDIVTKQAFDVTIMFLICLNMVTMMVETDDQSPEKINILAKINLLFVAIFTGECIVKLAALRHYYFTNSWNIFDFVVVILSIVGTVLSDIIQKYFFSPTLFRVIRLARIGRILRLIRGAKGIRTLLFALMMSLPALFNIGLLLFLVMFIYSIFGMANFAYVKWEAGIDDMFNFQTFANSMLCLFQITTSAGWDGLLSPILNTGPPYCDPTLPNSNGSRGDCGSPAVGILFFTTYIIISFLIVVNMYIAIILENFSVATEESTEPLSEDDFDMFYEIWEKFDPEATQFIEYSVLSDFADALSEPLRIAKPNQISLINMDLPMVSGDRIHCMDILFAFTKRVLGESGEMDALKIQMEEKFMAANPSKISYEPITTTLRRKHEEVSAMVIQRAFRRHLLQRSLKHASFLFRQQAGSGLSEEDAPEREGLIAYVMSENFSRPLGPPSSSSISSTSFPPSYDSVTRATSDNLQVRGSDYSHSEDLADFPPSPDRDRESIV
Sequence of Cytochrome P450 2D6 (P10635 whole entry): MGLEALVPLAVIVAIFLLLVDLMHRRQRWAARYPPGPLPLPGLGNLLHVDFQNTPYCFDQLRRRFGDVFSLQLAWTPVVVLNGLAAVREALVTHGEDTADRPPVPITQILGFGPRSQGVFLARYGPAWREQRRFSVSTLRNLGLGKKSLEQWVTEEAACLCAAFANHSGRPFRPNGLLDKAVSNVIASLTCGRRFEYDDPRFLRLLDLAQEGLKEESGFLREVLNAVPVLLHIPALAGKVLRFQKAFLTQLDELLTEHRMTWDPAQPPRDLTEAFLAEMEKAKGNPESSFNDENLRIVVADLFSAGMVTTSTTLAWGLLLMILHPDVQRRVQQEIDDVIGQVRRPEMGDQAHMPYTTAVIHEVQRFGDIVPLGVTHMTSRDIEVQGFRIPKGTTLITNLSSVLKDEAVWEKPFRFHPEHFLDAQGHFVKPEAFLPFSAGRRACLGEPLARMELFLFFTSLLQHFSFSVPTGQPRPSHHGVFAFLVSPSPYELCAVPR
Sequence of Cytochrome P450 2C19 (P33261 whole entry): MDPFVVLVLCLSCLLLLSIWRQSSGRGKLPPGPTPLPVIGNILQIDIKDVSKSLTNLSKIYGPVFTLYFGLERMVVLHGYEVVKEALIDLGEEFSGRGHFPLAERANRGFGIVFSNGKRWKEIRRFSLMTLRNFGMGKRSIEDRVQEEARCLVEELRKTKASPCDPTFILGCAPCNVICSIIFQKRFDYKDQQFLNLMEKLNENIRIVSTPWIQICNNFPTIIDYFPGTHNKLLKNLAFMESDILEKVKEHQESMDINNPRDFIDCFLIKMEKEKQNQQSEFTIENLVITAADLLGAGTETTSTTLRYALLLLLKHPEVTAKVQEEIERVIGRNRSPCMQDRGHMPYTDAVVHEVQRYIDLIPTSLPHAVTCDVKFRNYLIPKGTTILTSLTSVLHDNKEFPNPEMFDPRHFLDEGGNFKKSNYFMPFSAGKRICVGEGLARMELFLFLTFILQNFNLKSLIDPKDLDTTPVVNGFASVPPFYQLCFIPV

For COc1ccc2c(c1)[C@@H]1C[C@]1(C(=O)N1C3CC1CN(C)C3)Cn1c-2c(C2CCCCC2)c2ccc(C(=O)NS(=O)(=O)N(C)C)cc21, the Stability (Liver microsome [1]) was 98%, the concentration at 6 h [2] was 409 nM and the EC50 (Cytochrome P450 2C9) was over 40 µM. It also gave an EC50 (Hepatitis C virus [3]) of 0.006 µM, a concentration at 6 h [4] of 440 nM and an EC50 (Hepatitis C virus [5]) of 0.005 µM. It also gave an AUC(0-t) at 6 h [6] of 4.93 µM·h, an EC50 (Hepatitis C virus [7]) of 0.028 µM and an EC50 (Cytochrome P450 3A4) of 14 µM. For the same molecule, the EC50 [8] was over 50 µM, the EC50 [9] was 30 µM and the concentration at 6 h [10] was 14300 nM. For the same molecule, the solubility [11] was 760 µg/mL (≈ 1180 µM), the Papp [12] was 43 ×10⁻⁶ cm/s and the Stability (Liver microsome [13]) was 98%. For the same molecule, the EC50 [14] was 20 µM, the CC50 [15] was 13 µM and the EC50 (Cytochrome P450 2D6) was over 40 µM. The EC50 (Cytochrome P450 2C19) was over 40 µM, the clearance [16] was 9 mL/min/kg and the concentration at 6 h [17] was 17500 nM. The EC50 (Cytochrome P450 1A2) was over 40 µM, the EC50 (HepG2) was 25 µM and the AUC(0-t) at 6 h [18] was 11.2 µM·h.

With Cn1c(C2(NC(=O)c3ccc4c(C5CCCC5)c(-c5ncc(Br)cn5)n(C)c4c3)CCC2)nc2ccc(/C=C/C(=O)O)cc21 [DELEOBUVIR] the EC50 (Hepatitis C virus [19]) was 0.043 µM and the EC50 (Hepatitis C virus [20]) was 0.017 µM.

COc1ccc2c(c1)C1CC1(C(=O)N1CC(O)C1)Cn1c-2c(C2CCCCC2)c2ccc(C(=O)NS(=O)(=O)N(C)C)cc21 (racemic) showed a Stability (Liver microsome [1]) of 84%, a concentration at 4 h [21] of 8800 nM and an EC50 (Hepatitis C virus [3]) of 0.045 µM. For the same molecule, the EC50 (Hepatitis C virus [5]) was 0.038 µM, the EC50 (Hepatitis C virus [7]) was 0.059 µM and the concentration at 4 h [22] was 17 nM. It also gave an EC50 [8] of over 50 µM, a concentration at 4 h [23] of 5000 nM and a solubility [11] of 57 µg/mL (≈ 93.9 µM). The Papp [12] was 25 ×10⁻⁶ cm/s, the Stability (Liver microsome [13]) was 95% and the Kp at 4 h [24] was over 200. For the same molecule, the concentration at 4 h [25] was 11 nM, the CC50 [15] was over 10 µM and the AUC(0-t) at 4 h [26] was 1.42 µM·h. It also gave an AUC(0-t) at 4 h [27] of 0.041 µM·h and a clearance [28] of 96 mL/min/kg.

From ChEMBL document CHEMBL3124792, “Discovery and preclinical characterization of the cyclopropylindolobenzazepine BMS-791325, a potent allosteric inhibitor of the hepatitis C virus NS5B polymerase” (J Med Chem, 2014)
